Test results as given in PMC3606823 (Journal of biomolecular screening, 2012).
Read-outs that look alike come from different tables or passages of the source. Each block holds one compound with its values, some of them ahead of it.

Legend:
human DDAH1 [1] = molecular target: T1, human DDAH1 (Homo sapiens, UniProt O94760); test: Colorimetric L-citrulline assay with ADMA as substrate; format: biochemical
[2] = test system: primary microvascular endothelial cells (HMVECs); test: L-citrulline assay in cell lysates; format: cell-based; details: 1 mM L-Arginine for 24 hours vs vehicle, p<0.05
human DDAH1 [3] = molecular target: T1, human DDAH1; test: Secondary fluorimetric CPM assay with SMTC as substrate; format: biochemical; details: for IC50: inhibition of human DDAH1, CPM assay, 30 nM DDAH, 100 μM SMTC; for time-dependent inhibition (mode of inhibition): 50 μM compound, 30 nM enzyme, fluorometric CPM assay; for confirmation as DDAH inhibitor in the validation assay: known DDAH inhibitors
human DDAH1 [4] = molecular target: T1, human DDAH1; details: cited from earlier work
DDAH = details: enzyme isolated from rat kidney homogenates; cited from earlier work
[5] = screening with recombinant human DDAH1, assay format not given

T1 sequence (O94760 whole entry): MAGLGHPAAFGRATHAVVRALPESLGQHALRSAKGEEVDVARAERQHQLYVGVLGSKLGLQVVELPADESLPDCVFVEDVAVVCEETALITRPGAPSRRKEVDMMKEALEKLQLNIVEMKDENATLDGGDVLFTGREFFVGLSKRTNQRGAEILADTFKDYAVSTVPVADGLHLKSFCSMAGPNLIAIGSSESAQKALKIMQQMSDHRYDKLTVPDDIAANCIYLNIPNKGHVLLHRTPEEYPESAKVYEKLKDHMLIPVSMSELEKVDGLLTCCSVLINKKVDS

Compound: CN(C)C(N)=NCCC[C@H](N)C(=O)O [ADMA, Asymmetric Dimethylarginine]
Km (human DDAH1 [1]): 180 µM
kcat (human DDAH1 [1]; ADMA as substrate, 0.3 μM DDAH, 500 μM ADMA, 4 hours at 37°C): ~ 0.7 min^−1

Compound: Cn1c(=O)c2[nH]cnc2n(C)c1=O.[CH2-]C(Cc1cccc2cc(C(=O)O)c(=O)oc12)OC.[Hg+2].[OH-] (centres unmarked) [Cumertilin]
inhibition (human DDAH1 [1]; at 25μM, screening with recombinant human DDAH1): 100%

Compound: N=C(N)NCCC[C@H](N)C(=O)O [L-Arginine]
amount of intracellular L-citrulline [2]: increased the amount of intracellular L-citrulline significantly

IC50 (human DDAH1 [3]): 13300 nM
Compound: CN=c1nc(-c2ccccc2)n(-c2ccccc2)s1 [SCH-202676]

Compound: CSC(N)=NCCC[C@H](N)C(=O)O [SMTC, S-methyl-L-thiocitrulline]
kcat (human DDAH1 [4]; SMTC as substrate at 100 μM): ~ 1 min^−1
Km (human DDAH1 [4]; SMTC as substrate): 1 µM

Compound: C[CH2][Hg][S]c1ccccc1C(=O)[O-].[Na+] [Thimerosal]
IC50 (human DDAH1 [1]; [5]): 460 nM

Compound: O=C(O)c1cc[c]([Hg][Cl])cc1 [chloromercuribenzoate, 4-chloromercuribenzoic acid]
time-dependent inhibition (mode of inhibition) (human DDAH1 [3]): progressive inhibition
confirmation as DDAH inhibitor in the validation assay (human DDAH1 [3]): confirmed
sensitivity of the enzyme to the compound (DDAH): sensitive

confirmation as DDAH inhibitor in the validation assay (human DDAH1 [3]): confirmed
IC50 (human DDAH1 [1]): 3900 nM
Compound: O=c1c2ccccc2[se]n1-c1ccccc1 [ebselen]

Compound: [Cl][Hg][Cl] [mercury chloride]
sensitivity of the enzyme to the compound (DDAH): sensitive

Compound: CC(=O)[O][Hg][c]1ccccc1 [phenylmercuric acetate]
time-dependent inhibition (mode of inhibition) (human DDAH1 [3]): progressive inhibition
IC50 (human DDAH1 [3]): < 780 nM
IC50 (human DDAH1 [1]; [5]): < 780 nM
